# Like-named read-outs stand apart in the source and are kept apart here.
# Target: DPP4 (Homo sapiens, UniProt P27487)
# Experiment: DPP4 activity assay (DPP4 inhibitor screening assay kit, Cayman);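 note: fluorescence read at excitation 360 nm and emission 460 nm after the enzyme reaction ran 30 min at 37 °C in a 96-well plate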
# Format: biochemical
# Set-up: purchased Cayman Chemical, Ann Arbor, MI, USA
# Conditions: control mean 100.0; for remaining activity at 10 µM: 0.5 h
# [1] = 10 µM, Figure 1A raw data, read-out: DPP4 activity in library screen, Exp 1
# [2] = 10 µM, Figure 1A raw data, read-out: DPP4 activity in library screen, Exp 2
# [3] = 10 µM, Figure 1A raw data, read-out: DPP4 activity in library screen, Exp 3
# [4] = 10 µM, mean of Exp 1-3, read-out: DPP4 activity in library screen, Mean
# Chain of DPP4 (P27487 whole entry): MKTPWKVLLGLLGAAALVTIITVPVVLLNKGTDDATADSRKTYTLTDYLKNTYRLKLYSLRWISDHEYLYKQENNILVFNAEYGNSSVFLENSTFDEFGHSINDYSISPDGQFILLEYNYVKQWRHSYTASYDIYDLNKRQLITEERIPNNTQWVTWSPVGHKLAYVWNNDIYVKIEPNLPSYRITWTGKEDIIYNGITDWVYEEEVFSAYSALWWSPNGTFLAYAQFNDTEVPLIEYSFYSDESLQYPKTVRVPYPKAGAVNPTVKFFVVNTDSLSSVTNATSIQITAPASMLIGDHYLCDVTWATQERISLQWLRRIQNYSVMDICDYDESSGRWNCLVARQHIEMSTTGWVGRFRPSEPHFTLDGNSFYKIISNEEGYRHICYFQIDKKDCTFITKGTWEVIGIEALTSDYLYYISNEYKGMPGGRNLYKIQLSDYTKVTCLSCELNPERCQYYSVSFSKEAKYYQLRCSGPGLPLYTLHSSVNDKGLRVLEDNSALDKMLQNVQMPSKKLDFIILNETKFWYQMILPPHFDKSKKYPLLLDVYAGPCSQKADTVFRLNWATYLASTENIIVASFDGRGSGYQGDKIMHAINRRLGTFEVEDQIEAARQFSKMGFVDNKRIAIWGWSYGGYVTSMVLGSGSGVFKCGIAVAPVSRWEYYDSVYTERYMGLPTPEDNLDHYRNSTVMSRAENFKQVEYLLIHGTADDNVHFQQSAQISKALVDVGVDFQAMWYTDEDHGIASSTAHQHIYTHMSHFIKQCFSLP
SMILES,remaining activity at 10 µM [1] [%],remaining activity at 10 µM [2] [%],remaining activity at 10 µM [3] [%],remaining activity at 10 µM [4] [%],also measured
CC1=C(CC/C(C)=C/CCC2=CC[C@H](C3=CC(=O)O[C@H]3O)O[C@H]2O)C(C)(C)CCC1 [Manoalide],102,112,125,113,–
C[C@H]1C(=O)O[C@@H]2CCN3CC=C(COC(=O)[C@](C)(O)[C@]1(C)O)[C@H]23 [Monocrotaline],70.9,95.8,85.1,83.9,–
O.O=c1c(O)c(-c2ccc(O)cc2O)oc2cc(O)cc(O)c12 [Morin Hydrate],–,–,–,–,"DPP4 activity in library screen, Exp 1 (10 µM, Figure 1A raw data): 79.5; DPP4 activity in library screen, Exp 2 (10 µM, Figure 1A raw data): 73.7; DPP4 activity in library screen, Exp 3 (10 µM, Figure 1A raw data): 79.4; DPP4 activity in library screen, Mean (10 µM, mean of Exp 1-3): 77.5"
O=c1c(O)c(-c2cc(O)c(O)c(O)c2)oc2cc(O)cc(O)c12 [Myricetin],–,–,–,–,"DPP4 activity in library screen, Exp 2 (10 µM, Figure 1A raw data): 57.5; DPP4 activity in library screen, Mean (10 µM, mean of Exp 1-3): 57.9"
CCn1cc(C(=O)O)c(=O)c2ccc(C)nc21 [Nalidixic acid],95.6,94.7,93.5,94.6,–
O=C1C[C@@H](c2ccc(O)cc2)Oc2cc(O)cc(O)c21 [Naringenin],80.4,87.5,94.1,87.3,–
C[C@@H]1O[C@@H](O[C@H]2[C@H](Oc3cc(O)c(C(=O)CCc4ccc(O)cc4)c(O)c3)O[C@H](CO)[C@@H](O)[C@@H]2O)[C@H](O)[C@H](O)[C@H]1O [Naringin Dihydrochalcone],–,–,–,–,"DPP4 activity in library screen, Exp 1 (10 µM, Figure 1A raw data): 84.3; DPP4 activity in library screen, Exp 2 (10 µM, Figure 1A raw data): 82.4; DPP4 activity in library screen, Exp 3 (10 µM, Figure 1A raw data): 91.6; DPP4 activity in library screen, Mean (10 µM, mean of Exp 1-3): 86.1"
C[C@@H]1O[C@@H](O[C@H]2[C@H](Oc3cc(O)c4c(c3)O[C@H](c3ccc(O)cc3)CC4=O)O[C@H](CO)[C@@H](O)[C@@H]2O)[C@H](O)[C@H](O)[C@H]1O [Naringin],116,82.6,68.6,89.2,–
"COc1ccc(CCC(=O)c2c(O)cc(O[C@@H]3O[C@H](CO)[C@@H](O)[C@H](O)[C@H]3O[C@@H]3O[C@@H](C)[C@H](O)[C@@H](O)[C@H]3O)cc2O)cc1O [Neohesperidin dihydrochalcone (Nhdc), Neohesperidin dihydrochalcone]",90.3,78,91.2,86.5,–
COc1ccc([C@@H]2CC(=O)c3c(O)cc(O[C@@H]4O[C@H](CO)[C@@H](O)[C@H](O)[C@H]4O[C@@H]4O[C@@H](C)[C@H](O)[C@@H](O)[C@H]4O)cc3O2)cc1O [Neohesperidin],–,–,–,–,"DPP4 activity in library screen, Exp 1 (10 µM, Figure 1A raw data): 93.8; DPP4 activity in library screen, Exp 2 (10 µM, Figure 1A raw data): 90.3; DPP4 activity in library screen, Exp 3 (10 µM, Figure 1A raw data): 71.8; DPP4 activity in library screen, Mean (10 µM, mean of Exp 1-3): 85.3"
COc1ccc(-c2cc(=O)c3c(OC)c(OC)c(OC)c(OC)c3o2)cc1OC [Nobiletin],81.7,69.9,67.6,73.1,–
COc1cc2c(cc1O)C[C@@H]1NCCc3cc(OC)c(O)c-2c31 [Norisoboldine],–,–,–,–,"DPP4 activity in library screen, Exp 1 (10 µM, Figure 1A raw data): 95.3; DPP4 activity in library screen, Exp 2 (10 µM, Figure 1A raw data): 99.3; DPP4 activity in library screen, Exp 3 (10 µM, Figure 1A raw data): 71; DPP4 activity in library screen, Mean (10 µM, mean of Exp 1-3): 88.5"
Cc1c(C(=O)NCCO)[n+]([O-])c2ccccc2[n+]1[O-] [Olaquindox],77.8,99.1,116,97.8,–
C/C=C1/[C@H](O[C@@H]2O[C@H](CO)[C@@H](O)[C@H](O)[C@H]2O)OC=C(C(=O)OC)[C@H]1CC(=O)OCCc1ccc(O)c(O)c1 [Oleuropein],117,101,93.4,104,–
C=C1C(=O)[C@]23[C@H](O)[C@H]1CC[C@H]2[C@@]12CO[C@]3(O)[C@@H](O)[C@@H]1C(C)(C)CC[C@@H]2O [Oridonin],81,85.4,96.9,87.8,–
"O=C(O)c1cc(=O)[nH]c(=O)[nH]1 [Orotic acid (6-Carboxyuracil), Orotic acid]",83.5,88,95.5,89,–
COc1ccc2ccc(=O)oc2c1CC=C(C)C [Osthole],93.1,95.2,87.3,91.9,–
O=C1CCC[C@@H]2[C@H]3CCC[N+]4([O-])CCC[C@@H](CN12)[C@@H]34 (some centres unmarked) [Oxymatrine],106,103,83.7,97.6,–
COc1ccc(C(C)=O)c(O)c1 [Paeonol],80.3,92.8,99.9,91,–

SMILES,remaining activity at 10 µM [1] [%],remaining activity at 10 µM [2] [%],remaining activity at 10 µM [3] [%],remaining activity at 10 µM [4] [%],also measured
COc1cc2c(cc1OC)-c1cc3ccc(OC)c(OC)c3c[n+]1CC2 [Palmatine chloride],–,–,–,–,"remaining activity at 10 µM (read-out: DPP4 activity in library screen, Exp 1, 10 µM, Figure 1A raw data): 49.5%; remaining activity at 10 µM (read-out: DPP4 activity in library screen, Exp 2, 10 µM, Figure 1A raw data): 48.9%; remaining activity at 10 µM (read-out: DPP4 activity in library screen, Exp 3, 10 µM, Figure 1A raw data): 43.9%; remaining activity at 10 µM (read-out: DPP4 activity in library screen, Mean, 10 µM, mean of Exp 1-3): 47.4%"
O=C(CCc1ccc(O)cc1)c1c(O)cc(O)cc1O [Phloretin],78.9,90.5,55.2,74.9,–
O=C(CCc1ccc(O)cc1)c1c(O)cc(O)cc1O[C@@H]1O[C@H](CO)[C@@H](O)[C@H](O)[C@H]1O [Phlorizin],63.2,86.5,114,87.8,–
O=C(/C=C/C=C/c1ccc2c(c1)OCO2)N1CCCCC1 [Piperine],67.7,60.2,77.8,68.6,–
OC[C@H]1O[C@@H](Oc2cc(O)cc(/C=C/c3ccc(O)cc3)c2)[C@H](O)[C@@H](O)[C@@H]1O [Polydatin],89.6,81.3,70,80.3,–
O=c1c(-c2ccc(O)cc2)coc2c([C@@H]3O[C@H](CO)[C@@H](O)[C@H](O)[C@H]3O)c(O)ccc12 [Puerarin],94.4,98,93.8,95.4,–
O=c1c(O)c(-c2ccc(O)c(O)c2)oc2cc(O)cc(O)c12 [Quercetin Dihydrate],–,–,–,–,"DPP4 activity in library screen, Exp 1 (10 µM, Figure 1A raw data): 59.9; DPP4 activity in library screen, Exp 2 (10 µM, Figure 1A raw data): 57; DPP4 activity in library screen, Exp 3 (10 µM, Figure 1A raw data): 57.1; DPP4 activity in library screen, Mean (10 µM, mean of Exp 1-3): 58.0"
O=c1c(O)c(-c2ccc(O)c(O)c2)oc2cc(O)cc(O)c12 [Quercetin],62.7,62.1,72.1,65.6,–
COc1ccc([C@@]23Oc4cc(OC)cc(OC)c4[C@]2(O)[C@H](O)[C@H](C(=O)N(C)C)[C@H]3c2ccccc2)cc1 [Rocaglamide],100,100,94.9,98.5,–
COc1cc2c(cc1OC)[C@@H]1Cc3ccc(OC)c(OC)c3CN1CC2 [Rotundine],103,99.8,104,102,–
O=c1c2ccccc2nc2n1CCc1c-2[nH]c2ccccc12 [Rutaecarpine],71.3,78.6,71.4,73.8,–
C[C@@H]1O[C@@H](OC[C@H]2O[C@@H](Oc3c(-c4ccc(O)c(O)c4)oc4cc(O)cc(O)c4c3=O)[C@H](O)[C@@H](O)[C@@H]2O)[C@H](O)[C@H](O)[C@H]1O [Rutin],78.7,73.8,50.1,67.5,–
C[C@H](NCc1ccc(OCc2cccc(F)c2)cc1)C(N)=O [Safinamide],93.4,98.3,118,103,–
OCc1ccccc1O[C@@H]1O[C@H](CO)[C@@H](O)[C@H](O)[C@H]1O [Salicin],72,94.5,87.9,84.8,–
OC[C@H]1O[C@@H](OCCc2ccc(O)cc2)[C@H](O)[C@@H](O)[C@@H]1O [Salidroside],97.1,97.1,113,102,–
C=C[C@](C)(O)CC[C@@H]1[C@@]2(C)CCCC(C)(C)[C@@H]2CC[C@@]1(C)O [Sclareol],80.9,99.9,71.4,84.1,–
CC1(C)CCC[C@]2(C)[C@H]3CC(=O)O[C@]3(C)CC[C@@H]12 [Sclareolide],–,–,–,–,"DPP4 activity in library screen, Exp 1 (10 µM, Figure 1A raw data): 95.1; DPP4 activity in library screen, Exp 2 (10 µM, Figure 1A raw data): 80.7; DPP4 activity in library screen, Exp 3 (10 µM, Figure 1A raw data): 80.2; DPP4 activity in library screen, Mean (10 µM, mean of Exp 1-3): 85.3"
c1cc2c(cc1[C@H]1OC[C@H]3[C@@H]1CO[C@@H]3c1ccc3c(c1)OCO3)OCO2 [Sesamin],93.7,90,85.5,89.7,–

# — article PMC5428354, “Screening of a natural compound library identifies emodin, a natural compound from Rheum palmatum Linn that inhibits DPP4” (PeerJ, 2017)
